Test results reported in patent US11644474B2, “Use of macimorelin in assessing growth hormone deficiency in children” (Æterna Zentaris GmbH, priority 2020, dated 2023).
“And” between values parts separate entries of the source, which are not always exact repeats. Equal entries are not always repeated. “Also recorded” adds a separate entry of the source. Where two headings read alike, the source gives them in different places.

Legend:
Type in all cases: in vivo, human (paediatric subjects with suspected GHD)
[1] = Macimorelin plasma pharmacokinetics after single oral dose (Study AEZS-130-P01); conditions: for half-life: read-out: mean elimination half-life (converted); for Cmax: n=8 children; for AUC(0-t): read-out: mean AUC0-6 of macimorelin
Procedure: (§1) This was an open-label, group comparison, dose escalation trial to investigate the safety, tolerability, pharmacokinetics and pharmacodynamics of single-dose 0.25, 0.5, and 1 mg/kg oral macimorelin acetate in paediatric subjects with suspected GHD. The macimorelin GHST was administered between two standard GHST, conducted as per local clinical practice, with a recovery period of 7-28 days between tests. For the purposes of obtaining a detailed macimorelin PK profile in children, blood samples were collected pre-dose (±15 min) and 15, 30, 45, 60, 90, 120, and 360 minutes after macimorelin acetate intake.
(§2) The main features of Study P01 are summarized as follows: • Sequential cohorts of trial participants received macimorelin at ascending single oral doses: 0.25 mg/kg body weight in Cohort 1 (C1), 0.5 mg/kg body weight in Cohort 2 (C2), and 1 mg/kg body weight in Cohort 3 (C3). • For determination of macimorelin PK/PD: blood sampling at pre-dose, then 15, 30, 45, 60, 90, 120, and 360 minutes after the administration of macimorelin. • Two standard GHSTs (sGHSTs) had to be performed in a patient according to local practice. The related sGHST agents were considered as ‘background’ and not as IMPs. (Accepted test agents: insulin (insulin tolerance test or ITT), arginine, arginine/growth hormone releasing hormone (GHRH), clonidine, glucagon, L-dopa). Results
Macimorelin plasma concentrations: the analysis of plasma samples for macimorelin concentration was carried out at a central laboratory, Prolytic GmbH, Germany, using a validated liquid chromatography-mass spectrometry (LCMS/MS) method with a detection limit of 0.2 ng/mL (Franz, 2005).
Preliminary pharmacokinetics (PK) were determined by: time of maximum measured concentration (tmax) and maximum concentration (Cmax) of macimorelin plasma concentrations in the sampling period.

GH secretion = assay: Macimorelin growth hormone stimulation test (GHST): serum GH after oral macimorelin (PD); conditions: for Peak GH after Macimorelin GHST: individual patients, serum
Procedure: as §1, §2
GH serum concentration: the analysis of serum samples for GH concentration was carried out at a central laboratory by a validated immunochemiluminometric assay (IDS-iSYS Human Growth Hormone (hGH), Immunodiagnostic Systems Ltd [UK]) (Manolopoulou et al., 2012). This assay is standardized to the recombinant growth hormone calibration standard WHO 98/574, and complies with recommendations on assay standardization as outlined by Clemmons (Clemmons, 2011).
The analytical laboratory applied for GH was: Central Laboratory Synevo Łódź, Krakusa Str. 28, 93-515 Łódź. Poland. The lower limit of quantification was <0.05 ng/mL.

[2] = Safety and tolerability of single oral macimorelin (adverse events, questionnaires, safety laboratory, ECG); conditions: all three dosing cohorts, 0.25-1 mg/kg single oral dose; for safety and tolerability: questionnaires, safety laboratory, ECG
Procedure: as §1

[3] = human, C1, 0.25 mg/kg single oral dose, plasma
[4] = human, C2, 0.5 mg/kg single oral dose, plasma
[5] = human, C3, 1 mg/kg single oral dose, plasma

time at which maximum plasma concentrations for macimorelin were mainly observed ([1]; all cohorts, 0.25-1 mg/kg oral): 30 to 45 min | half-life ([1]; human, plasma, C1, 0.25 mg/kg single oral dose): 1.22 h | half-life ([1]; human, plasma, C2, 0.5 mg/kg single oral dose): 1.61 h | half-life ([1]; human, plasma, C3, 1 mg/kg single oral dose): 1.71 h | Tmax ([1]; human, plasma, all three groups C1-C3, 0.25-1 mg/kg oral): 0.5 to 0.75 h | Cmax [1, 3]: 3.46 ng/mL | AUC(0-t) [1, 3]: 6.69 ng·h/mL | Cmax [1, 4]: 8.13 ng/mL | AUC(0-t) [1, 4]: 18 ng·h/mL | Cmax [1, 5]: 12.9 ng/mL | AUC(0-t) [1, 5]: 30.9 ng·h/mL
Compound: CC(C)(N)C(=O)N[C@H](Cc1c[nH]c2ccccc12)C(=O)N[C@H](Cc1c[nH]c2ccccc12)NC=O [macimorelin]
change of macimorelin AUC with dose ([1]; 0.25, 0.5, 1 mg/kg oral): increased with dose; also recorded: dose-dependent increase; also recorded: increases with the macimorelin dose | change of macimorelin Cmax with dose ([1]; 0.25, 0.5, 1 mg/kg oral): dose-dependent increase; also recorded: dose-proportional increase | change of macimorelin plasma concentrations with dose ([1]; 0.25, 0.5, 1 mg/kg oral, FIG. 1): dose-dependent increase with high inter-individual variability | time within which peak GH levels were observed (GH secretion; C1, 0.25 mg/kg oral): 0.5 to 1 h | mean Tmax of peak GH (GH secretion; C1, 0.25 mg/kg oral (SD 11.3)): 0.875 h | Peak GH after Macimorelin GHST (GH secretion; C1, 0.25 mg/kg oral): 8.61 ng/mL and 0.51 ng/mL and 21.73 ng/mL and 5.22 ng/mL and 10.03 ng/mL and 14.07 ng/mL and 9.78 ng/mL and 8.38 ng/mL | time within which peak GH levels were observed (GH secretion; C2, 0.5 mg/kg oral): 0.25 to 1 h | mean Tmax of peak GH (GH secretion; C2, 0.5 mg/kg oral (SD 13.9)): 0.625 h | Peak GH after Macimorelin GHST (GH secretion; C2, 0.5 mg/kg oral): 5.06 ng/mL and 20.73 ng/mL and 7.41 ng/mL and 10.43 ng/mL and 21.36 ng/mL and 16.41 ng/mL and 9.67 ng/mL and 27.42 ng/mL | time within which peak GH levels were observed (GH secretion; C3, 1 mg/kg oral): 0.5 to 0.75 h | mean Tmax of peak GH (GH secretion; C3, 1 mg/kg oral (SD 8.0)): 0.625 h | stimulation of GH secretion (GH secretion; C3, 1 mg/kg oral, 8 patients): stimulated evidently in all 8 patients; also recorded: evident stimulation of GH secretion in all 8 patients | Peak GH after Macimorelin GHST (GH secretion; C3, 1 mg/kg oral): 17.13 ng/mL and 14.46 ng/mL and 59.73 ng/mL and 49.16 ng/mL and 25.07 ng/mL and 14.63 ng/mL and 11.35 ng/mL and 44.73 ng/mL | mean Tmax of GH release (GH secretion; all cohorts C1-C3): 0.5 to 1 h | time of maximum GH release after macimorelin administration (GH secretion; all cohorts C1-C3): 0.25 to 2 h | time at which peak GH levels were mainly observed following macimorelin intake (GH secretion; all three cohorts): 30 to 60 min | adverse events related to macimorelin ([2]; 24 children): none were considered related to the macimorelin test; also recorded: No adverse event was reported in relation to macimorelin | safety and tolerability [2]: excellent safety and tolerability | safety and tolerability ([2]; listed as Macimorelin acetate): safe and well tolerated in all dosing cohorts
